Patent US7629383B2, “Double esters” (Drug Discovery Laboratory AS, priority 2001, dated 2009)
Like-named read-outs stand apart in the source and are kept apart here.

Columns and labels:
[1] = Clinical testing of creams, indication skin cancer; type: in vivo, human; settings: one person, skin cancer in the face
Procedure: A person with skin cancer in the face (one lesion above the nose) was treated with photodynamic therapy (5-ALA methyl ester, available from Photocure ASA, Oslo, Norway). The outcome of the treatment was very good. After about one year they observed a new lesion in the same area.

Staphylococcus aureus = experiment: Antibacterial effect on agar gels; type: cell-based; settings: same amount (10 mg)
Procedure: The antibacterial effects of azelaic acid and the azelaic acid derivatives of Examples 7, 12 and 13 on Staphylococcus aureus were tested on agar gels.

[2] = cited from earlier work

Compound	inhibiting zones on agar gel (Staphylococcus aureus)	also measured
COC(=O)CCC(=O)CN [5-ALA methyl ester]	–	outcome of photodynamic therapy [1]: very good
CCOC(=O)OC(C)OC(=O)CCCCCCCC(=O)OC(C)OC(=O)OCC (centres unmarked) [Example 7, bis-[1-[ethoxycarbonyloxy]-ethyl]nonanedioate]	large inhibiting zones	–
CCCC(=O)OCOC(=O)CCCCCCCC(=O)OCOC(=O)CCC [Example 12, bis-(butanoyloxymethyl)nonanedioate]	large inhibiting zones	–
CCCCCC(=O)OCOC(=O)CCCCCCCC(=O)OCOC(=O)CCCCC [Example 13, bis-(hexanoyloxymethyl) nonanedioate]	large inhibiting zones	–
O=C(O)CCCCCCCC(=O)O [azelaic acid, nonanedioic acid]	no inhibiting effect	dose absorbed ([2]; administered orally): about 60%; dose absorbed ([2]; administered topically): about 3.6%; absorbed azelaic acid excreted into the urine ([2]; within 12 hours): 60%
